The text below walks through data of US6413947B1, “Anilide derivative, production and use thereof” (Takeda Chemical Industries, Ltd., priority 1997, dated 2002).

Structures can show the parent of a compound that is named as a salt.

In the case of `O=C(Nc1ccc(CN2CCCCC2)cc1)c1ccc2ccc(-c3ccccc3)cc2c1` [Compound 58, N-[4—(piperidinomethyl)phenyl]-7-phenylnaphthalene-2-carboxamide], the melting point (as a rule, the temperature of the solid-liquid transition) was in the range of 177 to 178 °C.

For `Cc1ccc(-c2ccc3c(c2)C=C(C(=O)Nc2ccc(CN4CCN(CCO)CC4)cc2)CC3)cc1` [Compound 46, N-[4-[1—(2-hydroxyethyl)-4-piperazinylmethyl]phenyl]-7—(4-methylphenyl)-3,4-dihydronaphthalene-2-carboxamide], the melting point was in the range of 185 to 187 °C.

For the compound `Cc1ccc(-c2ccc3c(c2)C=C(C(=O)Nc2ccc(CP4(=O)OCCCO4)cc2)CCO3)cc1` [Ref Ex 51, 2—(4—(7—(4-methylphenyl)-2,3-dihydro-1-benzoxepin-4-carbonylamino)benzyl)-1,3,2-dioxaphosphorinane-2-oxide], the melting point fell in the range of 268 to 269 °C.

The compound `Cc1ccc(-c2cccc(/C=C/C(=O)Nc3ccc(-c4ccccn4)cc3)c2)cc1` [Compound 188, (E)-N-[4—(2-pyridyl)phenyl]-3—(4-methylphenyl)cinnamamide] came in with a melting point of 220 to 222 °C.

`Cc1ccc(-c2ccc3c(c2)C=C(C(=O)Nc2ccc(Cc4cccc[n+]4[O-])cc2)CCO3)cc1` [Compound 162, N-[4—(1-oxidopyridin-2-ylmethyl)phenyl]-7—(4-methylphenyl)-2,3-dihydro-1-benzoxepine-4-carboxamide] showed a melting point of 188 to 190 °C.

For `Cc1ccc(-c2ccc3c(c2)C=C(C(=O)Nc2ccc(CN4CCCCC4)cc2)C3)cc1` [Compound 60, N-[4—(piperidinomethyl)phenyl]-5—(4-methylphenyl)indene-2-carboxamide], the melting point lay within 219 to 220 °C.

Compound `Cc1ccc(-c2cc3ccc(C(=O)Nc4ccc(CN(C)C5CCOCC5)cc4)cc3o2)cc1` [Compound 278, 2-(4-methylphenyl)-N-[4-[N-methyl-N-(tetrahydropyran-4-yl)aminomethyl]phenyl]benzofuran-6-carboxamide] showed a melting point of 224 to 227 °C.

On to `COc1ccccc1N1CCN(Cc2ccc(NC(=O)C3=Cc4cc(-c5ccc(C)cc5)ccc4CC3)cc2)CC1` [Compound 41, N-[4-[1—(2-methoxyphenyl)-4-piperazinylmethyl]phenyl]-7—(4-methylphenyl)-3,4-dihydronaphthalene-2-carboxamide], for which the melting point is 202 to 205 °C.

Turning to `COc1ccc(-c2ccc3c(c2)C=C(C(=O)Nc2ccc(CN(C)C4CCC(=O)CC4)cc2)CCS3)cc1` [Compound 284, 7-(4-methoxyphenyl)-N-[4-[N-methyl-N-(4-oxocyclohexyl)aminomethyl]phenyl]-2,3-dihydro-1-benzothiepine-4-carboxamide], the melting point lay within 133 to 139 °C.

Turning to `CN(C)c1ccc(-c2ccc3c(c2)C=C(C(=O)Nc2ccc(CP4(=O)CCCCC4)cc2)CCO3)cc1` [Compound 154, 7—(4-dimethylaminophenyl)-N-(4—((1-oxophosphorinan-1-yl)methyl)phenyl)-2,3-dihydro-1-benzoxepine-4-carboxamide], the melting point is 293 to 294 °C (dec.).

For the compound `CCSc1ccc(-c2ccc3c(c2)C=C(C(=O)Nc2ccc(CN(C)C4CCOCC4)cc2)CCN3C)cc1` [Compound 320, 7-(4-ethylthiophenyl)-1-methyl-N-[4-[[N-methyl-N-(tetrahydro-2H-pyran-4-yl)amino]methyl]phenyl]-2,3-dihydro-1-benzazepine-4-carboxamide], the melting point lay within 139 to 141 °C.

For `Cc1ccc(-c2ccc3c(c2)C=C(C(=O)Nc2ccc(CN4CCC(O)CC4)cc2)CC3)cc1` [Compound 49, N-[4—(4-hydroxypiperidinomethyl)phenyl]-7—(4-methylphenyl)-3,4-dihydronaphthalene-2-carboxamide], the melting point lay within 223 to 224 °C.

For `Cc1ccc(-c2cccc(/C=C/C(=O)Nc3ccc(C(O)c4ccccn4)cc3)c2)cc1` (centres unmarked) [Compound 79, (E)-N-[4-[hydroxy(2-pyridyl)methyl]phenyl]-3—(4-methylphenyl)cinnamamide], the melting point fell in the range of 162 to 165 °C.

Turning to `Cc1ccc(-c2cccc(/C=C/C(=O)Nc3ccc(CN4CCCCC4CCO)cc3)c2)cc1` (centres unmarked) [Compound 69, (E)-N-[4-[2—(2-hydroxyethyl)piperidinomethyl]phenyl]-3—(4-methylphenyl)cinnamamide], the melting point fell in the range of 142 to 143 °C.

Regarding `Cc1ccc(-c2ccc3c(c2)C=C(C(=O)Nc2ccc(-c4cccnc4)cc2)CCO3)cc1` [Compound 164, N-[4—(3-pyridyl)phenyl]-7—(4-methylphenyl)-2,3-dihydro-1-benzoxepine-4-carboxamide], the melting point lay in the range of 214 to 216 °C.

The compound `CN(Cc1ccc(NC(=O)C2=Cc3cc(-c4ccc(OC(F)(F)F)cc4)ccc3OCC2)cc1)C1CCOCC1` [Compound 186, N-[4-[N-methyl-N-(tetrahydropyran-4-yl)aminomethyl]phenyl]-7—(4-trifluoromethoxyphenyl)-2,3-dihydro-1-benzoxepine-4-carboxamide] returned a melting point of 187 to 188 °C.

The compound `CCOCCCN(C)Cc1ccc(NC(=O)C2=Cc3cc(-c4ccc(C)cc4)ccc3OCC2)cc1` [Compound 312, N-(4-((N-(3-ethoxypropyl)-N-methylamino)methyl)phenyl)-7-(4-methylphenyl)-2,3-dihydro-1-benzoxepine-4-carboxamide] displayed a melting point of 119 to 122 °C.

Take `COc1ccc[n+]([O-])c1C(O)c1ccc(NC(=O)C2=Cc3cc(-c4ccc(C)cc4)ccc3OCC2)cc1` (centres unmarked) [Compound 170, N-[4-[hydroxy(3-methoxy-1-oxidopyridin-2-yl)methyl]phenyl]-7—(4-methylphenyl)-2,3-dihydro-1-benzoxepine-4-carboxamide]: the melting point is 242 °C (dec.).

`Cc1ccc(-c2ccc3c(c2)C=C(C(=O)Nc2ccc(CN(C)C4CCOCC4)cc2)CC(c2ccccc2)O3)cc1` (centres unmarked) [Compound 101, 7—(4-methylphenyl)-2-phenyl-N-(4—((N-tetrahydropyran-4-yl-N-methylamino)methyl)phenyl)-2,3-dihydro-1-benzoxepine-4-carboxamide] yielded a melting point of 178 to 179 °C.

As for `Cc1ccc(-c2ccc3c(c2)C=C(C(=O)Nc2ccc(CNCC4CCCCC4)cc2)CCO3)cc1` [Compound 122, N-(4—((cyclohexylmethyl)aminomethyl)phenyl)-7—(4-methylphenyl)-2,3-dihydro-1-benzoxepine-4-carboxamide], the melting point fell in the range of 154 to 155 °C.

The compound `O=C(C=Cc1cccc(-c2ccccc2)c1)Nc1ccc(CN2CCCCC2)cc1` [Compound 81, 1—(4—(3-phenylcinnamoylamino)-benzyl)piperidine] returned a melting point of 159 to 160 °C.

The compound `Cc1ccc(-c2ccc3c(c2)C=C(C(=O)Nc2ccc(CNc4ccccn4)cc2)CCO3)cc1` [Compound 322, N-[4-[(pyrid-2-yl)aminomethyl]phenyl]-7-(4-methylphenyl)-2,3-dihydro-1-benzoxepine-4-carboxamide] displayed a melting point of 189 to 190 °C.

`Cc1ccc(-c2cccc(/C=C/C(=O)Nc3ccc(C[N+]4(C)CCCCC4)cc3)c2)cc1` (as salt: iodide) [Compound 72, (E)-1-methyl-1-[4—(3—(4-methylphenyl)cinnamamido)benzyl]-piperidinium iodide] returned a melting point of 176 to 178 °C.
